Assay results reported in PMC7044277 (Nature Communications, 2020).
pKi: −log10 of the molar value. Several values for one entry are separate records, joined by “and”; a condition that tells them apart may be missing. Equal values may be shown once.

Legend:
5HT6 = target: T1, 5HT6 (Homo sapiens, UniProt P50406); assay: β-arrestin2 recruitment (Tango); assay type: cell-based; settings: Fig_S10p, agonist mode
T1 construct: expressed in transfected cells; host or cells: HTLA cells expressing TEV-fused β-arrestin2
T1 sequence (P50406 whole entry, the tested form may be a part): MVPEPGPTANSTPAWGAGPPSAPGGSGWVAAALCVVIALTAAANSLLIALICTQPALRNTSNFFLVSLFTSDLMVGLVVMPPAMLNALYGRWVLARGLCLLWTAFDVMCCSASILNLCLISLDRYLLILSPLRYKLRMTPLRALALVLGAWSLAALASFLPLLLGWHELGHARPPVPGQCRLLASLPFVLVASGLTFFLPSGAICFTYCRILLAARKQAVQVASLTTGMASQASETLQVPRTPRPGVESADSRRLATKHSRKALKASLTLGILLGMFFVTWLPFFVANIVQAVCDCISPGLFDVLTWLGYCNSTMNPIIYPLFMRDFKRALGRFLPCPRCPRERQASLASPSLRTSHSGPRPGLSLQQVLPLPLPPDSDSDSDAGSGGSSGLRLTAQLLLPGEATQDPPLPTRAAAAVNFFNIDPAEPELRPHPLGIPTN

DRD3 F1063.28A = DRD3 F1063.28A (Homo sapiens, UniProt P35462, F106A); assay: biochemical; assay type: binding
Chain of DRD3 F1063.28A (P35462 whole entry F106A): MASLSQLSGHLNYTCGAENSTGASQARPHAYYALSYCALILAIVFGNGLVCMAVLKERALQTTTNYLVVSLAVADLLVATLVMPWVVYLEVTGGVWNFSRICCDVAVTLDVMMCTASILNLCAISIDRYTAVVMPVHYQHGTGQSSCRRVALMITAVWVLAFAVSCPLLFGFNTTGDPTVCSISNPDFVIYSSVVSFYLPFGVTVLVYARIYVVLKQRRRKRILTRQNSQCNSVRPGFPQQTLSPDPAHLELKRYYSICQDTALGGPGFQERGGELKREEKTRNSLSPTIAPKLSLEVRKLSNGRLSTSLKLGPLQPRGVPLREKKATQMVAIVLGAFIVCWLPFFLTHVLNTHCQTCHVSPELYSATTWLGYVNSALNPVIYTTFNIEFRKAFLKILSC

[1] = test system: serotonin receptor (subtype not given; reference agonist serotonin); assay: β-arrestin2 recruitment (Tango), agonist activity, source data Fig_S10l; assay type: cell-based, human; settings: drug alone
5HT1E = 5HT1E (Homo sapiens, UniProt P28566); assay: β-arrestin2 recruitment (Tango); assay type: cell-based; settings: Fig_S10i
Chain of 5HT1E (P28566 whole entry): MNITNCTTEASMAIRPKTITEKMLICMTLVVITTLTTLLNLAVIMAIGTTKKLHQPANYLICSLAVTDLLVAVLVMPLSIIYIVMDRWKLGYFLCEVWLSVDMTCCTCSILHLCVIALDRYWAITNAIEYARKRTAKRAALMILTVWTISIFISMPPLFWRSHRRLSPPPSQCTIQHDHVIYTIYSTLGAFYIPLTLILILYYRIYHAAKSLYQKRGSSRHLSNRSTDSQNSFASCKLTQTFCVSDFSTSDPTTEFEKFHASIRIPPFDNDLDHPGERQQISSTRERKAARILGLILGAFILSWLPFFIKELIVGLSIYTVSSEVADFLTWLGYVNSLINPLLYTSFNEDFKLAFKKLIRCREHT

With `CCOc1cccc2cc([C@H](C)NCC3(O)CCCCC3)oc12` [O4SE6] the “β-arrestin2 recruitment response, replicate points of concentration-response curve” value (5HT6; Log[Drug] -6) was -0.3035, the “β-arrestin2 recruitment response, replicate points of concentration-response curve” value (5HT6; Log[Drug] -6.52) was 1.0135 and 1.198 and 5.246 and -9.543 and -10.288 and -8.77 and 1.1615 and -3.588 and -1.1467 and the “β-arrestin2 recruitment response, replicate points of concentration-response curve” value (5HT6; Log[Drug] -7) was 1.87 and 1.848 and 8.574 and -11.7696 and -2.512 and -8.797 and 0.1776 and -4.113 and -5.009. The “β-arrestin2 recruitment response, replicate points of concentration-response curve” value (5HT6; Log[Drug] -7.52) was 1.593 and -0.504 and 0.09756 and -12.1009 (2×) and -11.7328 and 60.6717 and -4.6608 and -1.753, the “β-arrestin2 recruitment response, replicate points of concentration-response curve” value (5HT6; Log[Drug] -8) was 1.669 and -1.382 and -0.2872 and -13.1683 and -12.0825 and -9.524 and -3.196 and -2.353 and 1.768 and the “β-arrestin2 recruitment response, replicate points of concentration-response curve” value (5HT6; Log[Drug] -8.52) was 0.775 and 4.666 and 0.9864 and -12.4781 and -7.656 and -12.1009 and 0.3255 and -3.854 and 3.566. The “β-arrestin2 recruitment response, replicate points of concentration-response curve” value (5HT6; Log[Drug] -9) was 2.499 and 9.663 and 0.775 and -0.2945 and -9.561 and -9.543 and -2.049 and -4.424 and -4.173, the “β-arrestin2 recruitment response, replicate points of concentration-response curve” value (5HT6; Log[Drug] -9.52) was -0.09214 and 0.5474 and -0.9647 and -12.1929 and -11.3831 and -2.5214 and -5.0455 and -0.3107 and 5.623 and the “β-arrestin2 recruitment response, replicate points of concentration-response curve” value (5HT6; Log[Drug] -10) was 3.149 and 2.721 and -0.1138 and 8.135 and -9.598 and -12.4689 and 1.768 and 2.893 and -2.7151. For the same compound, the “β-arrestin2 recruitment response, replicate points of concentration-response curve” value (5HT6; Log[Drug] -10.52) was 2.504 and 5.311 and 0.7425 and -10.7297 and -3.616 and -12.1193 and -4.52 and 13.3166 and 0.2515, the “β-arrestin2 recruitment response, replicate points of concentration-response curve” value (5HT6; Log[Drug] -11) was 0.5474 and 6.401 and -0.2981 and -6.662 and -9.929 and -5.0796 and -2.915 and -3.588 and -2.353 and the “β-arrestin2 recruitment response, replicate points of concentration-response curve” value (5HT6; Log[Drug] -11.52) was 1.409 and 4.46 and -0.7262 and -4.371 and -12.837 and -12.1009 and -3.803 and -3.24 and -3.847. For the same compound, the pKi (DRD3 F1063.28A) was 5.72, the “response, Fig_S10l, replicate values” ([1]; Log[Drug] -6.52) was -2.091 and the “response, Fig_S10l, replicate values” ([1]; Log[Drug] -7) was -4.051 and -1.4228 and 2.693 and -6.163 and -1.5474 and -1.737 and -7.607 and -30.8777 and -6.976. The “response, Fig_S10l, replicate values” ([1]; Log[Drug] -7.52) was -6.555 and -13.4609 and -0.98 and 4.322 and -3.875 and -2.693 and -7.055 and 7.925 and -34.7877, the “response, Fig_S10l, replicate values” ([1]; Log[Drug] -8) was -3.792 and 35.132 and 2.507 and -11.1986 and -6.626 and 6.545 and -5.91 and -30.1494 and -3.473 and the “response, Fig_S10l, replicate values” ([1]; Log[Drug] -8.52) was 1.522 and -11.8615 and -2.437 and 12.7169 and -12.0506 and -8.665 and 20.957 and -2.778 and -10.1926. The “response, Fig_S10l, replicate values” ([1]; Log[Drug] -9) was -4.295 and 4.13 and 0.2396 and -2.794 and 1.184 and 0.6235 and -1.336 and -7.8842 and -10.8253, the “response, Fig_S10l, replicate values” ([1]; Log[Drug] -9.52) was 25.6854 and -2.744 and -6.32 and -4.5985 and -1.891 and 4.517 and 39.1804 and -4.421 and -3.844 and the “response, Fig_S10l, replicate values” ([1]; Log[Drug] -10) was -8.462 and 9.478 and -1.609 and 0.3049 and 15.9901 and -6.166 and 19.6932 and 12.6773 and 5.951. For the same compound, the “response, Fig_S10l, replicate values” ([1]; Log[Drug] -10.52) was 6.737 and -12.3624 and -4.665 and -4.851 and -5.052 and -4.841 and 9.484 and 11.2587 and 10.4562, the “response, Fig_S10l, replicate values” ([1]; Log[Drug] -11) was -35.1417 and -18.9513 and -15.3749 and 4.5184 and -0.5498 and 5.57 and -9.125 and -8.22 and 4.834 and the “response, Fig_S10l, replicate values” ([1]; Log[Drug] -11.52) was -5.783 and 6.132 and 4.745 and -13.0691 and -5.46 and 4.358 and -4.571 and 10.1317 and -13.0711. The “response, Fig_S10l, replicate values” ([1]; Log[Drug] -12) was 6.173 and -15.2273 and 9.6789 and 4.873 and 7.863 and 1.749 and -9.697 and 0.6459 and 4.404, the “β-arrestin2 recruitment response, agonist mode (single replicate values)” value (5HT1E; Log[Drug] -5.52) was 0.8358 and the “β-arrestin2 recruitment response, agonist mode (single replicate values)” value (5HT1E; Log[Drug] -6) was -1.216 and -11.5535 and -10.8591 and -6.779 and -25.5686 and -12.8268 and -17.4797 and -14.3235 and -24.758. For the same compound, the “β-arrestin2 recruitment response, agonist mode (single replicate values)” value (5HT1E; Log[Drug] -6.52) was -5.589 and -4.67 and -2.933 and -14.8207 and -0.8192 and -17.7203 and -10.9861 and -19.449 and -21.9113, the “β-arrestin2 recruitment response, agonist mode (single replicate values)” value (5HT1E; Log[Drug] -7) was -10.5885 and -12.0267 and -4.043 and -9.048 and -20.5356 and 41.9563 and -10.9581 and -15.0865 and -7.033 and the “β-arrestin2 recruitment response, agonist mode (single replicate values)” value (5HT1E; Log[Drug] -7.52) was -6.825 and 5.648 and -4.719 and -12.9295 and 12.6751 and -7.089 and -18.5156 and -18.3717 and -21.8227.
